Consider 17 compounds from patent US20250382305A1 (PTC THERAPEUTICS, INC., priority 2022, published 2025).

For one assay, the system named is ATXN3 pre-mRNA. Put plainly: RT-qPCR Assay to Quantify Exon 4 Skipping in ATXN3 pre-mRNA in Cells. The class given is cell-based. Particulars: percent exon 4 skipping in ATXN3 pre-mRNA, RT-qPCR of cell lysates; average IC50. As for the experimental part:
RT-qPCR Assay to Quantify Exon 4 Skipping in ATXN3 pre-mRNA in Cells
(§1) Test compounds were serially diluted 3.16-fold in 100% DMSO to generate a 7-point concentration curve. Aliquots of 0.5 μL of diluted compounds were transferred to a 96-well flat bottom plate by a liquid handler. An aliquot of 0.5 μL DMSO was also transferred to separate wells and used as controls. Duplicate samples were set up for each compound concentration and for the DMSO control.
Cells were thawed and incubated in cell culture media (DMEM, 10% FBS, and 1% antibiotic cocktail) for 72 h. Cells were trypsinized, counted, and re-suspended to a concentration of 100,000 cells/mL in cell culture media. A 100 μL aliquot of the cell suspensions were plated at 10,000 cells per well in the compound containing 96 well microtiter plate and incubated for in a cell culture incubator (37° C., 5% CO2, 100% relative humidity).
After 24 h, media was aspirated from the cells and 50 μL of the RCL2 lysis buffer (10 mM Tris-HCL pH 7.4, 150 mM NaCl, 0.33% IGEPAL® CA-630) was added to each well and incubated at RT for 1 min. Chilled nuclease free water (50 μL per well) was added and the plates were immediately transferred on ice. After 1 min on ice, plates were frozen at −80° C. overnight.
Preparation of RT-qPCR Reaction Mixture:
An aliquot of 2 μL/well of the cell lysates was transferred using the liquid handler to the Armadillo 384-Well PCR plate containing 8 μL/well of the RT-qPCR reaction mixture that was prepared as detailed above. The plates were then sealed with MicroAmp™ Optical Adhesive Film followed by spinning down for 1 min and placed in the CFX384 thermocycler (BioRad).
The RT-qPCR was carried out at the following temperatures for the indicated time: • Step 1: 48° C. (30 min) • Step 2: 95° C. (10 min) • Step 3: 95° C. (15 sec) • Step 4: 60° C. (1 min); then, repeated Steps 3 and 4 for a total of 40 cycles.
The percent exon 4 skipping was calculated for each dose of compound treatment using Equations 1 and 2.
Data were fit to a dose response curve and the IC50 was interpolated using XLfit® statistical and curve fitting package.
(§2) An average IC50>1 μM is indicated by one star (*), between >0.3 μM and ≤1 μM is indicated by two stars (**), between >0.03 μM and ≤0.3 μM is indicated by three stars (***), and ≤0.03 μM is indicated by four stars (****).
A general note: In qPCR the cycle at which signal appears reflects the starting amount.

The test system of assay [1] is Total ATXN3 (tATXN3) protein. Put plainly: Endogenous Total ATXN3 (tATXN3) Protein Assay (MSD immunoassay of cell lysates). The class given is cell-based. Particulars: average IC50, total ATXN3 protein in cell lysate after 48 h with compound (Table 1). As for the experimental part: Endogenous Total ATXN3 (tATXN3) Protein Assay
Meso Scale Discovery (MSD) 96-well or 384-well plates were coated overnight at 4° C. with Ataxin 3 mouse monoclonal antibody (Invitrogen, MA3-082) at a concentration of 0.5 μg/mL in PBS (30 μL per well). Plates were then washed three times with 300 μL wash buffer (0.05% TWEEN®-20, polyethylene glycol sorbitan monolaurate, in PBS) and blocked (Meso Scale Diagnostics, R93BA-1; 5% BSA in PBS) for 2 h at RT with rotational shaking and then washed three times with wash buffer.
as §1
Cells were thawed and incubated in cell culture media (DMEM, 10% FBS, and 1% antibiotic cocktail) for 72 h. Cells were trypsinized, counted, and re-suspended to a concentration of 100,000 cells/mL in cell culture media. A 100 μL aliquot of the cell suspensions were plated at 10,000 cells per well in the compound containing 96 well microtiter plate and incubated for in a cell culture incubator (37° C., 5% CO2, 100% relative humidity). After 48 h, the medium was removed and 50-100 μL of lysis buffer (Meso Scale Diagnostics, R60TX-2) containing 1× halt protease inhibitor cocktail of (Thermo Scientific, Halt™ Protease Inhibitor Cocktail, 78430) per well was added to cells to provide a “cell lysate”. The plate was placed on a shaker at 4° C. for 30 minutes, then stored at −80° C.
Cell lysate samples (25 μL) were transferred to the antibody-coated MSD plate and incubated overnight at 4° C. After removal of the lysates, the plate was washed three times with wash buffer, and 25 μL of Ataxin 3 recombinant rabbit monoclonal antibody (Invitrogen, #702788) secondary antibody (diluted to 0.25 μg/mL in 0.05% TWEEN®-20 in blocking buffer) was added to each well and incubated with shaking for 1-2 h at room temperature. Following incubation with the secondary antibody, the wells were rinsed with wash buffer and then 25 μL of Anti Rabbit Antibody Goat SULFO-TAG Labeled (Meso Scale Diagnostics, R32AB-1) detecting antibody (diluted to […] in 0.05% TWEEN®-20 in blocking buffer) was added to each well and incubated with shaking for 1 h at room temperature. After rinsing three times with wash buffer, 150 μL of Read Buffer T with surfactant (tris-based buffer containing tripropylamine, Meso Scale Diagnostics, R92TC-1) were added to each empty well, and the plate was imaged on a SI 6000 imager (MSD) according to manufacturers' instructions provided for 96- or 384-well plates.
as §2

Take `N[C@@H]1CCCN[C@H]1c1sc2c(NCc3cccs3)cc(Cl)nc2c1Br.N[C@H]1CCCN[C@@H]1c1sc2c(NCc3cccs3)cc(Cl)nc2c1Br` (mixture of isomers) [Compound 47, 2-((2R,3R)-3-aminopiperidin-2-yl)-3-bromo-5-chloro-N-(thiophen-2-ylmethyl)thieno[3,2-b]pyridin-7-amine and 2-((2S,3S)-3-aminopiperidin-2-yl)-3-bromo-5-chloro-N-(thiophen-2-ylmethyl)thieno[3,2-b]pyridin-7-amine]: the IC50 – broadly, the concentration needed to halve the response being measured – with ATXN3 pre-mRNA is 0.3 to 1 µM; in assay [1], greater than 1 µM.

Turning to `CCc1c([C@@H]2CCCCC[C@H]2N)sc2c(NCc3cccs3)cc(Cl)nc12` (single isomer, unassigned) [Compound 86, 2-((1R,2R)-2-aminocycloheptyl)-5-chloro-3-ethyl-N-(thiophen-2-ylmethyl)thieno[3,2-b]pyridin-7-amine or 2-((1S,2S)-2-aminocycloheptyl)-5-chloro-3-ethyl-N-(thiophen-2-ylmethyl)thieno[3,2-b]pyridin-7-amine], the IC50 (with ATXN3 pre-mRNA; in assay [1]) was greater than 1 µM each time.

Take `N[C@@H]1CCCO[C@H]1c1sc2c(NCc3ccco3)cc(Cl)nc2c1Cl` [Compound 119, 2-((2R,3R)-3-aminotetrahydro-2H-pyran-2-yl)-3,5-dichloro-N-(furan-2-ylmethyl)thieno[3,2-b]pyridin-7-amine]: the IC50 (in the assay on ATXN3 pre-mRNA; in assay [1]) was greater than 1 µM in each case.

For the compound `N[C@H]1[C@H](O)CCC[C@@H]1c1sc2c(NCc3cccs3)cc(Cl)nc2c1Cl` [Compound 298, (1R,2R,3S)-2-amino-3-(3,5-dichloro-7-((thiophen-2-ylmethyl)amino)thieno[3,2-b]pyridin-2-yl)cyclohexan-1-ol], the IC50 (with ATXN3 pre-mRNA; in assay [1]) was 0.03 to 0.3 µM each time.

“2-((3R,4S)-3-aminotetrahydro-2H-pyran-4-yl)-3,5-dichloro-N-(furan-2-ylmethyl)thieno[3,2-b]pyridin-7-amine and 2-((3S,4R)-3-aminotetrahydro-2H-pyran-4-yl)-3,5-dichloro-N-(furan-2-ylmethyl)thieno[3,2-b]pyridin-7-amine [Compound 314]”: the IC50 (in the assay on ATXN3 pre-mRNA; in assay [1]) was 0.03 to 0.3 µM in each case.

As to “2-((1R,6R)-6-aminocyclohex-3-en-1-yl-2,2,3,4,5,5-d6)-3,5-dichloro-N-(furan-2-ylmethyl)thieno[3,2-b]pyridin-7-amine and 2-((1S,6S)-6-aminocyclohex-3-en-1-yl-2,2,3,4,5,5-d6)-3,5-dichloro-N-(furan-2-ylmethyl)thieno[3,2-b]pyridin-7-amine [Compound 180]”, the IC50 (with ATXN3 pre-mRNA; in assay [1]) was no more than 0.03 µM throughout.

For the compound `N[C@@H]1CCCC[C@H]1c1sc2c(NCc3ccncc3)cc(Cl)nc2c1Br` [Compound 432, 2-((1R,2R)-2-aminocyclohexyl)-3-bromo-5-chloro-N-(pyridin-4-ylmethyl)thieno[3,2-b]pyridin-7-amine], the IC50 (with ATXN3 pre-mRNA; in assay [1]) was 0.03 to 0.3 µM in each case.

On to `Cc1c([C@@H]2CCCCC[C@H]2N)sc2c(NCc3cccs3)cc(Cl)nc12` [Compound 83, 2-((1R,2R)-2-aminocycloheptyl)-5-chloro-3-methyl-N-(thiophen-2-ylmethyl)thieno[3,2-b]pyridin-7-amine], for which the IC50 (with ATXN3 pre-mRNA; in assay [1]) was greater than 1 µM each time.

Take `CCc1c([C@@H]2CCCC[C@H]2N)sc2c(NCc3cccs3)cc(Cl)nc12` (single isomer, unassigned) [Compound 39, 2-((1R,2R)-2-aminocyclohexyl)-5-chloro-3-ethyl-N-(thiophen-2-ylmethyl)thieno[3,2-b]pyridin-7-amine or 2-((1S,2S)-2-aminocyclohexyl)-5-chloro-3-ethyl-N-(thiophen-2-ylmethyl)thieno[3,2-b]pyridine-7-amine]: the IC50 (with ATXN3 pre-mRNA; in assay [1]) was greater than 1 µM each time.

Take `N[C@@H]1CC=CC[C@H]1c1sc2c(NCc3cccs3)nc(Cl)nc2c1I` [Compound 362, 6-((1R,6R)-6-aminocyclohex-3-en-1-yl)-2-chloro-7-iodo-N-(thiophen-2-ylmethyl)thieno[3,2-d]pyrimidin-4-amine]: the IC50 (in the assay on ATXN3 pre-mRNA; in assay [1]) was 0.03 to 0.3 µM each time.

Consider `N[C@H]1CCCO[C@@H]1c1sc2c(NCc3ccco3)cc(Cl)nc2c1Br` [Compound 115, 2-((2S,3S)-3-aminotetrahydro-2H-pyran-2-yl)-3-bromo-5-chloro-N-(furan-2-ylmethyl)thieno[3,2-b]pyridin-7-amine], for which the IC50 (with ATXN3 pre-mRNA; in assay [1]) was no more than 0.03 µM in each case.

Take `N[C@H]1CCCO[C@@H]1c1sc2c(NCc3ccccc3)cc(Cl)nc2c1I` [Compound 136, 2-((2S,3S)-3-aminotetrahydro-2H-pyran-2-yl)-N-benzyl-5-chloro-3-iodothieno[3,2-b]pyridin-7-amine]: the IC50 (with ATXN3 pre-mRNA; in assay [1]) was no more than 0.03 µM each time.

In the case of `N[C@H]1CCCCCC[C@@H]1c1sc2c(NCc3cccs3)cc(Cl)nc2c1Cl` [Compound 96, 2-((1S,2S)-2-aminocyclooctyl)-3,5-dichloro-N-(thiophen-2-ylmethyl)thieno[3,2-b]pyridin-7-amine], the IC50 (with ATXN3 pre-mRNA; in assay [1]) was 0.03 to 0.3 µM throughout.

Regarding `N[C@@H]1CC=CC[C@H]1c1sc2c(NCc3ccco3)cc(Cl)nc2c1Br` [Compound 310, 2-((1R,6R)-6-aminocyclohex-3-en-1-yl)-3-bromo-5-chloro-N-(furan-2-ylmethyl)thieno[3,2-b]pyridin-7-amine], the IC50 (with ATXN3 pre-mRNA; in assay [1]) was 0.03 to 0.3 µM each time.

As to `CC#CCNc1cc(Cl)nc2c(Br)c([C@@H]3CC(C)=C(C)C[C@H]3N)sc12` [Compound 438, 2-((1R,6R)-6-amino-3,4-dimethylcyclohex-3-en-1-yl)-3-bromo-N-(but-2-yn-1-yl)-5-chlorothieno[3,2-b]pyridin-7-amine], the IC50 was 0.03 to 0.3 µM in the assay on ATXN3 pre-mRNA and 0.3 to 1 µM in assay [1].

Regarding “2-((1R,6S)-6-amino-2,2-difluorocyclohexyl)-3-bromo-5-chloro-N-(thiophen-2-ylmethyl)thieno[3,2-b]pyridin-7-amine and 2-((1S,6R)-6-amino-2,2-difluorocyclohexyl)-3-bromo-5-chloro-N-(thiophen-2-ylmethyl)thieno[3,2-b]pyridin-7-amine [Compound 269]”, the IC50 (with ATXN3 pre-mRNA; in assay [1]) was 0.03 to 0.3 µM each time.

On to “2-((1R,6R)-6-aminocyclohex-3-en-1-yl)-3-bromo-5-chloro-N-((E)-pent-2-en-1-yl)thieno[3,2-b]pyridin-7-amine and 2-((1S,6S)-6-aminocyclohex-3-en-1-yl)-3-bromo-5-chloro-N-((E)-pent-2-en-1-yl)thieno[3,2-b]pyridin-7-amine [Compound 455]”, for which the IC50 (in the assay with ATXN3 pre-mRNA; in assay [1]) was 0.3 to 1 µM throughout.
